Source: ChEMBL document CHEMBL4507297, “Data for DCP probe PF-04457845” (2021)

Key:
[1] = biological target: Tyrosine-protein kinase JAK2 (Homo sapiens) (UniProt O60674); details: Compound concentration 1000.0 nM
[2] = biological target: Tyrosine-protein kinase Tec (Homo sapiens) (UniProt P42680); details: Compound concentration 1000.0 nM
[3] = biological target: MAP/microtubule affinity-regulating kinase 4 (Homo sapiens) (UniProt Q96L34); details: Compound concentration 1000.0 nM
[4] = biological target: Receptor-interacting serine/threonine-protein kinase 4 (Homo sapiens) (UniProt P57078); details: Compound concentration 1000.0 nM
[5] = biological target: D(1B) dopamine receptor (Homo sapiens) (UniProt P21918); details: Compound concentration 10.0 uM
[6] = biological target: Inhibitor of nuclear factor kappa-B kinase subunit epsilon (Homo sapiens) (UniProt Q14164); details: Compound concentration 1000.0 nM
[7] = biological target: Macrophage colony-stimulating factor 1 receptor (Homo sapiens) (UniProt P07333); details: Compound concentration 1000.0 nM
[8] = biological target: Cyclin-dependent kinase 15 (Homo sapiens) (UniProt Q96Q40); details: Compound concentration 1000.0 nM
[9] = biological target: Protein kinase C eta type (Homo sapiens) (UniProt P24723); details: Compound concentration 1000.0 nM
[10] = biological target: Testis-specific serine/threonine-protein kinase 1 (Homo sapiens) (UniProt Q9BXA7); details: Compound concentration 1000.0 nM
Sequence of Testis-specific serine/threonine-protein kinase 1 (Homo sapiens) (Q9BXA7 whole entry): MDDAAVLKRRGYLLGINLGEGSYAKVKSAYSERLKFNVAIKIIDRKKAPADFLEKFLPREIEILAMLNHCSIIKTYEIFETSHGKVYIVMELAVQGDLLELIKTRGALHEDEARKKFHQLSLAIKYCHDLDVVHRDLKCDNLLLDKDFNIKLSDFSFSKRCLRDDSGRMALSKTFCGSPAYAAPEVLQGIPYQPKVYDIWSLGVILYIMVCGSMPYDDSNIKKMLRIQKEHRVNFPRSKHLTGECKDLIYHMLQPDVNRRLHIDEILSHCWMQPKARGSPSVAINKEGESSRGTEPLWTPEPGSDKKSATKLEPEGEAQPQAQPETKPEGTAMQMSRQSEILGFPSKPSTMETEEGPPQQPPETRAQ

[11] = biological target: Bone morphogenetic protein receptor type-1B (Homo sapiens) (UniProt O00238); details: Compound concentration 1000.0 nM
[12] = biological target: Mitogen-activated protein kinase kinase kinase 3 (Homo sapiens) (UniProt Q99759); details: Compound concentration 1000.0 nM
Sequence of Mitogen-activated protein kinase kinase kinase 3 (Homo sapiens) (Q99759 whole entry): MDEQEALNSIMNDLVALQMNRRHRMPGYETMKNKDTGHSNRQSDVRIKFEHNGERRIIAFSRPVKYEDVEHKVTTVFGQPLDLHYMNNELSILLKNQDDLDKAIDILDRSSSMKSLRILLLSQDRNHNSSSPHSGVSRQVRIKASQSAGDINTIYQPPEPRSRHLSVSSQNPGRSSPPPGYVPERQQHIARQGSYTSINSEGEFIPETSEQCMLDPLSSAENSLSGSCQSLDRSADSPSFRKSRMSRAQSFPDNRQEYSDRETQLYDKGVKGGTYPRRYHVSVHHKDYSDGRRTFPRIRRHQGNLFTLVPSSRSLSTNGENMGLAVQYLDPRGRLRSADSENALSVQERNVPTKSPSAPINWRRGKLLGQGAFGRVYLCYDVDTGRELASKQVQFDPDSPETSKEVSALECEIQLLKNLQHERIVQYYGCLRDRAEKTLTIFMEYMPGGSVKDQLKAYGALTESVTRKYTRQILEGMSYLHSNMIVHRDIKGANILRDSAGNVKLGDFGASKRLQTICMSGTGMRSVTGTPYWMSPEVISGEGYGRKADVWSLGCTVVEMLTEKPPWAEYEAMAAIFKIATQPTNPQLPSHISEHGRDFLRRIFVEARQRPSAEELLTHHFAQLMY

[13] = biological target: T1, Sigma intracellular receptor 2 (Homo sapiens, UniProt Q5BJF2); details: Compound concentration 10.0 uM
T1 sequence (Q5BJF2 whole entry): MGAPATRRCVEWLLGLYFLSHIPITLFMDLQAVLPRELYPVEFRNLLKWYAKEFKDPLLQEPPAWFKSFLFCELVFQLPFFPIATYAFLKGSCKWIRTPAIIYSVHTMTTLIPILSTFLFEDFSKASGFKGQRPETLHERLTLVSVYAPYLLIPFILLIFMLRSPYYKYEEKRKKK

[14] = biological target: Dual specificity protein kinase CLK1 (Homo sapiens) (UniProt P49759); details: Compound concentration 1000.0 nM
[15] = biological target: 5-hydroxytryptamine receptor 5A (Homo sapiens) (UniProt P47898); details: Compound concentration 10.0 uM
Sequence of 5-hydroxytryptamine receptor 5A (Homo sapiens) (P47898 whole entry): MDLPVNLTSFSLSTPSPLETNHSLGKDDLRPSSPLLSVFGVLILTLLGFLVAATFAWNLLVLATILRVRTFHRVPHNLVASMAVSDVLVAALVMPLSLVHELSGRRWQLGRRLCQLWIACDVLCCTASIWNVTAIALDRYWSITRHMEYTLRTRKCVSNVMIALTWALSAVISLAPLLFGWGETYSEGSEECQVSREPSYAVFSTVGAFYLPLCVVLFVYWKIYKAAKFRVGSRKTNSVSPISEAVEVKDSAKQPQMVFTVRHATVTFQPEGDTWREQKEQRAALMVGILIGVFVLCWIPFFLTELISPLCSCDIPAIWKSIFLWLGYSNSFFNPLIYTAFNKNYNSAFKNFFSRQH

[16] = biological target: Dual specificity tyrosine-phosphorylation-regulated kinase 1A (Homo sapiens) (UniProt Q13627); details: Compound concentration 1000.0 nM
[17] = biological target: Bone morphogenetic protein receptor type-1A (Homo sapiens) (UniProt P36894); details: Compound concentration 1000.0 nM
[18] = tested on: Phosphatidylinositol 4,5-bisphosphate 3-kinase catalytic subunit alpha isoform (Homo sapiens), P42336 [I800L]; details: Compound concentration 1000.0 nM
[19] = biological target: Proto-oncogene tyrosine-protein kinase Src (Homo sapiens) (UniProt P12931); details: Compound concentration 1000.0 nM
[20] = biological target: T2, Alpha-2A adrenergic receptor (Homo sapiens) (UniProt P08913); details: Compound concentration 10.0 uM
T2 sequence (whole entry): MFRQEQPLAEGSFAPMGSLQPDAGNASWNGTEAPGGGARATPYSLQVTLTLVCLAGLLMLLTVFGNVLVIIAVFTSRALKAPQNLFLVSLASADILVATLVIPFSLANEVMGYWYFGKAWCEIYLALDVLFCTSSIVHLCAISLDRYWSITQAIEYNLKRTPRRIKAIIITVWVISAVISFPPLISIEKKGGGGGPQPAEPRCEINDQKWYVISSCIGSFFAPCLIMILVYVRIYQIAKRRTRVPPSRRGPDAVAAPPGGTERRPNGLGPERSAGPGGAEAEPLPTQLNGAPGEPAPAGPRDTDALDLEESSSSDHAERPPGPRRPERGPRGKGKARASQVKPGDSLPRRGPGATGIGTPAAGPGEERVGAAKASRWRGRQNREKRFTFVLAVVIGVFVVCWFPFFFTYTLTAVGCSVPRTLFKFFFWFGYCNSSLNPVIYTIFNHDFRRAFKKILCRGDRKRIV

[21] = biological target: cAMP-dependent protein kinase catalytic subunit alpha (Homo sapiens) (UniProt P17612); details: Compound concentration 1000.0 nM
[22] = biological target: Activin receptor type-1B (Homo sapiens) (UniProt P36896); details: Compound concentration 1000.0 nM
[23] = biological target: Cyclin-dependent kinase 11A (Homo sapiens) (UniProt Q9UQ88); details: Compound concentration 1000.0 nM
Sequence of Cyclin-dependent kinase 11A (Homo sapiens) (Q9UQ88 whole entry): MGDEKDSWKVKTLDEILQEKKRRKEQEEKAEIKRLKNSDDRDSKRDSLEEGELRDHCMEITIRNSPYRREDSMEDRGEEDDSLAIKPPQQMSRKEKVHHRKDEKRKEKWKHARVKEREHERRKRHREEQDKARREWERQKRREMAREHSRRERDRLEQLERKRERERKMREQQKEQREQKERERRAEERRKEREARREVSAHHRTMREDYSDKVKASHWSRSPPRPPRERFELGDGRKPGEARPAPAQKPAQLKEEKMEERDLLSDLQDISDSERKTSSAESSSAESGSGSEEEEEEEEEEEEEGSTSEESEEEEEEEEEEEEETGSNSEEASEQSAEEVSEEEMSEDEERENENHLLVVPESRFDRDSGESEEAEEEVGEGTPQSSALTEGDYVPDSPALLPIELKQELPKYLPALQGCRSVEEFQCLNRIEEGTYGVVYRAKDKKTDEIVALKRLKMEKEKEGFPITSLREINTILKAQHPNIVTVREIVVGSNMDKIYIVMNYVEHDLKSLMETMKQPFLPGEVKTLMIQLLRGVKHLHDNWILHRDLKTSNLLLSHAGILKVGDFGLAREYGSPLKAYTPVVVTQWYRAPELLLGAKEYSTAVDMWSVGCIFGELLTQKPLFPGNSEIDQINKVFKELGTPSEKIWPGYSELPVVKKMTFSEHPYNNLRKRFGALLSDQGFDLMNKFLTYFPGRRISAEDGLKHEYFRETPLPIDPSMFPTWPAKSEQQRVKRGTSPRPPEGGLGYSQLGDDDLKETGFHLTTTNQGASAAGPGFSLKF

[24] = biological target: Ribosomal protein S6 kinase alpha-3 (Homo sapiens) (UniProt P51812); details: Compound concentration 1000.0 nM
[25] = biological target: Muscarinic acetylcholine receptor M5 (Homo sapiens) (UniProt P08912); details: Compound concentration 10.0 uM
[26] = tested on: Phosphatidylinositol 4,5-bisphosphate 3-kinase catalytic subunit alpha isoform (Homo sapiens), P42336 [E545K]; details: Compound concentration 1000.0 nM
[27] = biological target: Activin receptor type-1 (Homo sapiens) (UniProt Q04771); details: Compound concentration 1000.0 nM
[28] = biological target: Dual specificity protein kinase CLK2 (Homo sapiens) (UniProt P49760); details: Compound concentration 1000.0 nM
[29] = biological target: Inhibitor of nuclear factor kappa-B kinase subunit alpha (Homo sapiens) (UniProt O15111); details: Compound concentration 1000.0 nM
[30] = biological target: Serine/threonine-protein kinase LATS1 (Homo sapiens) (UniProt O95835); details: Compound concentration 1000.0 nM
[31] = biological target: Serine/threonine-protein kinase Nek4 (Homo sapiens) (UniProt P51957); details: Compound concentration 1000.0 nM
[32] = biological target: Myosin-IIIb (Homo sapiens) (UniProt Q8WXR4); details: Compound concentration 1000.0 nM
[33] = biological target: T1, Sigma intracellular receptor 2; assay: GPCRScan assay: inhibition of Sigma 2; parameters: radioligand conc. used [nm] 5.0, parental cells HEKT
[34] = biological target: Calcium/calmodulin-dependent protein kinase type II subunit alpha (Homo sapiens) (UniProt Q9UQM7); details: Compound concentration 1000.0 nM
Sequence of Calcium/calmodulin-dependent protein kinase type II subunit alpha (Homo sapiens) (Q9UQM7 whole entry): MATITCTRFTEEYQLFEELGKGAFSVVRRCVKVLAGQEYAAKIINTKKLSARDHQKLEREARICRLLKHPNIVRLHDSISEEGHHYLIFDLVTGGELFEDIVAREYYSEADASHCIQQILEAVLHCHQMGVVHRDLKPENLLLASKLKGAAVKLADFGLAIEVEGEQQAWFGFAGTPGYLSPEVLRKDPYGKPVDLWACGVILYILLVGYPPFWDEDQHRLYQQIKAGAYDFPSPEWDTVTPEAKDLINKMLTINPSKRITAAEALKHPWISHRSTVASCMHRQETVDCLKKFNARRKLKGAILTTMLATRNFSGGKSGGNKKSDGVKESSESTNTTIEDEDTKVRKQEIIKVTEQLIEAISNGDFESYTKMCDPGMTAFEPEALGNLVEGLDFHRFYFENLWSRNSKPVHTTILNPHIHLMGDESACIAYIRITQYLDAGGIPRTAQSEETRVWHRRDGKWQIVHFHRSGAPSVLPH

[35] = biological target: Serine/threonine-protein kinase MARK1 (Homo sapiens) (UniProt Q9P0L2); details: Compound concentration 1000.0 nM
[36] = biological target: Serine/threonine-protein kinase Chk1 (Homo sapiens) (UniProt O14757); details: Compound concentration 1000.0 nM
[37] = tested on: Phosphatidylinositol 4,5-bisphosphate 3-kinase catalytic subunit alpha isoform (Homo sapiens), P42336 [E545A]; details: Compound concentration 1000.0 nM
Sequence of Phosphatidylinositol 4,5-bisphosphate 3-kinase catalytic subunit alpha isoform (Homo sapiens), P42336 [E545A] (P42336 whole entry E545A, canonical isoform): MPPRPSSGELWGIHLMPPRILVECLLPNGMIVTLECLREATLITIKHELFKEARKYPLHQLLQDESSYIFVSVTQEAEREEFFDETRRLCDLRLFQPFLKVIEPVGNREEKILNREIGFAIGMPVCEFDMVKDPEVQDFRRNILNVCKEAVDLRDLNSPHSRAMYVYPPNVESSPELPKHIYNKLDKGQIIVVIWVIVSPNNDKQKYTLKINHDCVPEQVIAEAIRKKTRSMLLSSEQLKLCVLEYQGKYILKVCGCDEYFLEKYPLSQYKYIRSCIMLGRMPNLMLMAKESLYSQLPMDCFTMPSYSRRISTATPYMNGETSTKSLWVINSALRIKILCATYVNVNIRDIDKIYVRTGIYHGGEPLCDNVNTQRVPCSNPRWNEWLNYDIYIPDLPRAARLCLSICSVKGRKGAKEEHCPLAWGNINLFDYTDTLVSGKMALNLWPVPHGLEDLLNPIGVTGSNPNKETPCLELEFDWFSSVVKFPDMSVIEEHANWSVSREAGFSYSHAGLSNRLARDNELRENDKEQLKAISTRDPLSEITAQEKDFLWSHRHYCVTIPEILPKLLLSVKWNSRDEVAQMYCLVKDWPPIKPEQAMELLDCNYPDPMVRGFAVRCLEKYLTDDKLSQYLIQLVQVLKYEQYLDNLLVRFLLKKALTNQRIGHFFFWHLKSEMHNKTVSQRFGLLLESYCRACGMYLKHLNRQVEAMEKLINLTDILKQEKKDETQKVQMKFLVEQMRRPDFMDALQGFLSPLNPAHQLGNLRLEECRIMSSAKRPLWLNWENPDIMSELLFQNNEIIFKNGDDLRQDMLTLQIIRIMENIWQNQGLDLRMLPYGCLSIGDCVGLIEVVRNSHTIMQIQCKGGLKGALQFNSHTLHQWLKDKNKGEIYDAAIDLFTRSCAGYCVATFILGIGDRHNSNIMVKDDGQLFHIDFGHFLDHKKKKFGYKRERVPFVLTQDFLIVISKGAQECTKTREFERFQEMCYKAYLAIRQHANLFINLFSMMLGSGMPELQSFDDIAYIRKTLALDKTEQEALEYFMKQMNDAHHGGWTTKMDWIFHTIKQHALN

[38] = biological target: Serine/threonine-protein kinase PAK 1 (Homo sapiens) (UniProt Q13153); details: Compound concentration 1000.0 nM
[39] = biological target: Vascular endothelial growth factor receptor 2 (Homo sapiens) (UniProt P35968); details: Compound concentration 1000.0 nM

Sequence of Tyrosine-protein kinase JAK2 (Homo sapiens) (O60674 whole entry): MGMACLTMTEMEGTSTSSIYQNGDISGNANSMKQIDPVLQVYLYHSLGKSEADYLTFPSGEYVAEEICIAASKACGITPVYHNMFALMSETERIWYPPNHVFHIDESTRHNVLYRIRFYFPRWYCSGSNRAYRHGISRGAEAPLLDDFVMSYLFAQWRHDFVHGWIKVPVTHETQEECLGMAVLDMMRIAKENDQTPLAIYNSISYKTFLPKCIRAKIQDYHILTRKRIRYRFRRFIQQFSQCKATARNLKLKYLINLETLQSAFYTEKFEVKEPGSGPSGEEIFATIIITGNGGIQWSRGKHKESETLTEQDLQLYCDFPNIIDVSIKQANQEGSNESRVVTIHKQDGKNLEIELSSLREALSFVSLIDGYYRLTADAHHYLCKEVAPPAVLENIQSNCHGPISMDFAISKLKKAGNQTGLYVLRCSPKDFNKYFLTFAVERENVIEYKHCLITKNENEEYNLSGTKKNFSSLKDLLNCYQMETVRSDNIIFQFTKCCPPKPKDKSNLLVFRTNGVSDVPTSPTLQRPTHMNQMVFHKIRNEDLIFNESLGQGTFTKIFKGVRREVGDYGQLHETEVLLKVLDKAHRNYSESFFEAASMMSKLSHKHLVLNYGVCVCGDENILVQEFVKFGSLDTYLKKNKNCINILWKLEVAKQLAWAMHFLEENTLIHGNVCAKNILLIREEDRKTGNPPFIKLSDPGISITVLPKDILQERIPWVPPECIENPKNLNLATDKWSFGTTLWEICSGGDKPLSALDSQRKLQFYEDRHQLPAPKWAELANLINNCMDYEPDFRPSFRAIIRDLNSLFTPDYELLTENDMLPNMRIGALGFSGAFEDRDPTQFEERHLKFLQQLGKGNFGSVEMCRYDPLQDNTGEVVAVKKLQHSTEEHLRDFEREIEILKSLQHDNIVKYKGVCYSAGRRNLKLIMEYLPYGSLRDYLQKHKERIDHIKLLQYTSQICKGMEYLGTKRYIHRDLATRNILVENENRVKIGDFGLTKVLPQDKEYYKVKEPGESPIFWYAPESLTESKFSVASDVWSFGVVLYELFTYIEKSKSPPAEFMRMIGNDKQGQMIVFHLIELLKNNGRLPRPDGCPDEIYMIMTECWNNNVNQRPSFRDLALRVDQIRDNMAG

| SMILES | residual activity [1] | residual activity [2] | residual activity [3] | residual activity [4] | inhibition [5] | residual activity [6] | residual activity [7] | residual activity [8] | residual activity [9] | residual activity [10] | residual activity [11] | residual activity [12] | inhibition [13] | residual activity [14] | inhibition [15] | residual activity [16] | residual activity [17] | residual activity [18] | residual activity [19] | inhibition [20] | also measured |
| --- | --- | --- | --- | --- | --- | --- | --- | --- | --- | --- | --- | --- | --- | --- | --- | --- | --- | --- | --- | --- | --- |
| O=C(Nc1cccnn1)N1CCC(=Cc2cccc(Oc3ccc(C(F)(F)F)cn3)c2)CC1 | 100% | 100% | 76% | 100% | 29.3% | 100% | 95% | 100% | 77% | 82% | 88% | 100% | 91.3% | 95% | 28.4% | 100% | 100% | 100% | 88% | 34.5% | residual activity [21]: 100%; residual activity [22]: 88%; residual activity [23]: 82%; residual activity [24]: 100%; inhibition [25]: 23.5%; residual activity [26]: 100%; residual activity [27]: 92%; residual activity [28]: 66%; residual activity [29]: 93%; residual activity [30]: 100%; residual activity [31]: 98%; residual activity [32]: 100%; Ki [33]: 0.437 µM; residual activity [34]: 72%; residual activity [35]: 84%; residual activity [36]: 78%; residual activity [37]: 100%; residual activity [38]: 72%; residual activity [39]: 88% |
| O=C(Nc1cccnn1)N1CC(C/C=C/c2cncc(Oc3ccc(C(F)(F)F)cn3)n2)C1 | 88% | 100% | 100% | 74% | 4.5% | 77% | 100% | 100% | 100% | 100% | 91% | 79% | 69% | 100% | 7.85% | 75% | 100% | 91% | 100% | 0.68% | residual activity [21]: 93%; residual activity [22]: 79%; residual activity [23]: 100%; residual activity [24]: 73%; inhibition [25]: -0.59%; residual activity [26]: 81%; residual activity [27]: 92%; residual activity [28]: 100%; residual activity [29]: 69%; residual activity [30]: 91%; residual activity [31]: 95%; residual activity [32]: 100%; Ki [33]: 8.41 µM; residual activity [34]: 100%; residual activity [35]: 100%; residual activity [36]: 100%; residual activity [37]: 75%; residual activity [38]: 90%; residual activity [39]: 64% |
